Consider 5 molecules from US20240307453A1, “METHODS FOR CONTROLLING BLEEDING IN A SUBJECT AFFLICTED WITH HERMANSKY PUDLAK SYNDROME USING PLATELET DERIVATIVE COMPOSITIONS” (Cellphire, Inc., priority 2023, published 2024).

One experiment concerns the target T1, GpIIbIIa receptor (Homo sapiens, UniProt P05106+P08514).
T1 construct: endogenous in cells; host or cells: FPH (freeze-dried human platelet derivatives); in A8 also washed platelets from healthy donors
Briefly: Mixed aggregation of washed FPH with washed platelets with and without RGDS. It counts as cell-based. Particulars: 1 mM RGDS. How it is done: For one of the replicates of each, RGDS was added to achieve a 1 mM concentration. […] The mixture was prepared immediately prior to running on the PAP-8E Platelet Aggregometer. PAP-8E was turned on and samples were incubated with stirring for 10 minutes at 37° C. and HMTA was used as a control for collagen agonist used in aggregation. Stir bars were added to cuvettes and 225 μl of sample was added to cuvettes by reverse pipetting and inserted into channels. Cuvettes were then transferred from warming wells to the testing wells. Run was started for each channel with 10 seconds in between. 25 μl of collagen (Helena Biosciences, helenabiosciences.com) was added to appropriate cuvettes when the timer for the channel reached 8:00 minutes. HMTA was added in place of the agonist to the first channel as a control. After measurement was completed for collagen agonist, each sample was transferred to a microcentrifuge tube and AcT count was taken.

Experiment [1] has as its system FPH aggregation (GpIIbIIIa). Particulars: 5 mM MgCl2, FPH 250 k/μL, tirofiban present.
Description: A master mix of FPH or APU was prepared by combining cells dosed at 250 k/μL with HMTA to arrive at enough volume to fill 225 μl of sample into 8 cuvettes, plus extra buffer volume if necessary. 225 μl of master mix was transferred to cuvettes as specified along with a magnetic stir bar in each cuvette. […] The groups tested were as follows. (+) indicates the presence while (−) indicates the absence of the specified reagent: • 0.32 mM DMSO−/5 mM Mg−/1 mM Tiro− (negative control) • 0.32 mM DMSO+/5 mM Mg−/1 mM Tiro− (negative control) • 0.32 mM DMSO−/5 mM Mg+/1 mM Tiro− (positive control) • 0.32 mM DMSO+/5 mM Mg+/1 mM Tiro− (positive control) • 0.32 mM DMSO+/5 mM Mg−/1 mM Tiro− (#of samples=2) • 0.32 mM DMSO+/5 mM Mg−/1 mM Tiro− (#of samples=2)
The target of another experiment is T2, FXa (Homo sapiens, UniProt P00742).
T2 construct: tissue Octophrama (so in the source); host or cells: Octaplas plasma mixed with FPH
T2 sequence (P00742 235-488 limits assumed): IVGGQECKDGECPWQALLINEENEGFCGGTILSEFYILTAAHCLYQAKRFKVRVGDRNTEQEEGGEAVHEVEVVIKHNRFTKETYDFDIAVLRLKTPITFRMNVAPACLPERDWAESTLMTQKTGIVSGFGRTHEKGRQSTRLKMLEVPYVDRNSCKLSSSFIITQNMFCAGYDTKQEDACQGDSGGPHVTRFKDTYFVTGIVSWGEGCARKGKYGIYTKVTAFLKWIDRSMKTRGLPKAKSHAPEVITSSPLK
T2 sequence (P00742 41-179 limits assumed): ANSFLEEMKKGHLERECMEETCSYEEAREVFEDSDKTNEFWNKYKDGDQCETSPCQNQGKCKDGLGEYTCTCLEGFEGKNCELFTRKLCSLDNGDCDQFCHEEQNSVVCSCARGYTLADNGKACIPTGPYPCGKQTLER
Description: FPH thrombin generation response to Factor X blocking by rivaroxaban. It counts as biochemical. The note with it: dose dependent blocking of Factor X. How it is done: Rivaroxaban (Cayman Chemical, caymanchem.com) was diluted in TGA dilution buffer to 0 μg/ml, […], 350 ng/ml, and 70 ng/ml. 60 mM GPRP (BACHEM, bachem.com), thrombin (Sigma Aldrich, sigmaaldrich.com) and Octoplas (Octophrama, octopharma.com) were thawed according to manufacturer's guidelines. CLARIOstarPlus was used to perform TGA. A master mix of Octaplas, PRP reagent (Diagnostica Stago, Cat. No. 86196), and GPRP was prepared in a ratio of 68:15:5, respectively. Flu substrate and Fluo-buffer were combined according to manufacturer's guidelines to create FluCa (Diagnostica Stago, stago.com). Master mix and FluCa solution were placed in the 37° C. air incubator with agitation for 45±5 minutes. […] 10 μl of each sample was dispensed into selected wells of a 96-well plate (Corning, corning.com) by reverse pipetting. TGA dilution buffer for thrombin was used in the thrombin standard ladder. […] CLARIOstarPlus injectors 1 and 2 were primed with master mix and FluCa solution with 250 μl, then the injector was placed in the active position. The CLARIOstarPlus TGA program was loaded with parameters for TGA assay with injectors set to add 90 μl of master mix and 40 μl of FluCa solution to each well. Plate was inserted to be read.

In a further experiment the test system is washed platelets (WPS). Description: Mixed aggregation of washed FPH with washed platelets (WPS) with and without EDTA and agonists. The experiment is classed as cell-based, human. Particulars: 5 mM EDTA. How it is done: This was repeated 5 times. […] In one of the duplicates, EDTA was added to achieve a 5 mM concentration. […] These samples were prepared immediately prior to running on the PAP-8E Platelet Aggregometer. The different agonist were prediluted in HMTA according: arachidonic acid (Helena Biosciences, Helena-biosciences.com) 1:10 in HMTA, TRAP-6 (Tocris, tocris.com) by adding 7.5 μl to 292.5 μl HMTA.
The PAP-8E Platelet Aggregometer was turned on and samples were incubated with stirring for 10 minutes at 37° C. for all mixed aggregation experiments. The samples with HMTA was used as a control for agonists used in aggregation. The following agonists were used to induce aggregation in samples: 10 μg/ml collagen (Helena Biosciences, Helena-biosciences.com), 10U/ml thrombin (Helena Biosciences, Helena-biosciences.com), 10 μg/ml arachidonic acid, and 10 μM TRAP-6. 225 μl of the samples were added to cuvettes by reverse pipetting and inserted in the channels. Cuvettes were transferred from the warming wells to the testing wells. The test was started and 25 μl of each agonist was added to the appropriate cuvettes when the timer for the channel reached 8:00 minutes. HMTA was added in place of the agonist to the first channel in each module. Once measurements were completed for each agonist, the samples were transferred to a microcentrifuge tube and AcT count was taken. […]

Experiment [2] relates to fibrinogen, GPIIIa (CD61), complexed GPIIb/IIIa (CD41). Particulars: 5 mM EDTA. How it is done:
EDTA (Sigma Aldrich, sigmaaldrich.com) was added to one of the duplicates to achieve a 5 mM concentration. […] Stain volumes were as follows: Unstained: 10 μl of sample and 20 μl HMTA, 9F9: 10 μl of sample, 5 μl antibody, and 15 μl HMTA, CD41: 5 μl of sample and 12 μl antibody, and CD61: 10 μl of sample, 10 μl antibody, and 10 μl HMTA. Stained samples were incubated for 20 minutes for 9F9, CD61, and vWF and 5 minutes for CD41. 470 μl of the samples were added to 9F9 and CD61 stains and 233 μl of the samples were added to CD41 stains. 100 μl of each sample was transferred to wells in a 96-well plate. All samples were measured using the Quanteon flow cytometer.

For experiment [3], the system named is FPH aggregation (surface fibrinogen). Description: MgCl2 aggregation dose response after plasmin treatment of FPH. It counts as cell-based, human. The note with it: 0, 2, 5, 10 mM MgCl2, plasmin 1 hour. How it is done:
Both master mixes were incubated at room temperature with agitation for 1 hour. […] Magnetic stir bars were placed in all the cuvettes. […] Each concentration of MgCl2 to be tested was prepared in duplicate. […] Plasmin causes the breakdown of fibrinogen.

The target in experiment [4] is T3, fibrinogen on the surface of FPH (Homo sapiens, UniProt P02671+P02675+P02679).
T3 construct: endogenous in cells; host or cells: washed FPH (freeze-dried human platelet derivatives)
T3 sequence (P02671 20-629 limits assumed): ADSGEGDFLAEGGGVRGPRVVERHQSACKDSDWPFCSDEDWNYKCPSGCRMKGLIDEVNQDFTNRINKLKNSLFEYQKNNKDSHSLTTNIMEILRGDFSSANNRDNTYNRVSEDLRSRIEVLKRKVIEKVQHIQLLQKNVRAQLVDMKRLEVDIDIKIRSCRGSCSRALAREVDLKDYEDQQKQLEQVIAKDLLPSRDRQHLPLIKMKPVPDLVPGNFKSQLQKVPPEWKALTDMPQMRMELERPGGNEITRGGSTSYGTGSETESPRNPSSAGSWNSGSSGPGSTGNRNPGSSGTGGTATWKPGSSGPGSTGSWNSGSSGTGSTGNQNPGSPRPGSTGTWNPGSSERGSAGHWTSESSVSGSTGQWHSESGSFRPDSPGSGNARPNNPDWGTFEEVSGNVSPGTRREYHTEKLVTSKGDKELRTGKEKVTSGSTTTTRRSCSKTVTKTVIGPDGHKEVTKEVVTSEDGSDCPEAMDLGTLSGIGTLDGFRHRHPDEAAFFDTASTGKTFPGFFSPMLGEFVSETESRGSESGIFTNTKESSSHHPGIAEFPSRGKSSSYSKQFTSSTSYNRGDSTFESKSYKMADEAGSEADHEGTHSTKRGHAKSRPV
T3 sequence (P02675 31-491): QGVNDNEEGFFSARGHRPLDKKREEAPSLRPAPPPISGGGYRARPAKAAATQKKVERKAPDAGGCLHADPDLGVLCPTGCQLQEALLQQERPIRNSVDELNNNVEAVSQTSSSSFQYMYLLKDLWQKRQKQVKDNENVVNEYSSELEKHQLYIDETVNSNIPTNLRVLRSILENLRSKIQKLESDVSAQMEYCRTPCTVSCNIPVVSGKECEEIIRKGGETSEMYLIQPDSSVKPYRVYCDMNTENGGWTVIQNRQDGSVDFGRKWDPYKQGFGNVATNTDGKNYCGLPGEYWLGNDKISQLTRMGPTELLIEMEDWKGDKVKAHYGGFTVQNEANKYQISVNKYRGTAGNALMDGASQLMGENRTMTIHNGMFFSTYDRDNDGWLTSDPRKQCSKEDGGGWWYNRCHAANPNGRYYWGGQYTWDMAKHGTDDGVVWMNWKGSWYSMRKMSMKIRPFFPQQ
T3 sequence (P02679 27-453): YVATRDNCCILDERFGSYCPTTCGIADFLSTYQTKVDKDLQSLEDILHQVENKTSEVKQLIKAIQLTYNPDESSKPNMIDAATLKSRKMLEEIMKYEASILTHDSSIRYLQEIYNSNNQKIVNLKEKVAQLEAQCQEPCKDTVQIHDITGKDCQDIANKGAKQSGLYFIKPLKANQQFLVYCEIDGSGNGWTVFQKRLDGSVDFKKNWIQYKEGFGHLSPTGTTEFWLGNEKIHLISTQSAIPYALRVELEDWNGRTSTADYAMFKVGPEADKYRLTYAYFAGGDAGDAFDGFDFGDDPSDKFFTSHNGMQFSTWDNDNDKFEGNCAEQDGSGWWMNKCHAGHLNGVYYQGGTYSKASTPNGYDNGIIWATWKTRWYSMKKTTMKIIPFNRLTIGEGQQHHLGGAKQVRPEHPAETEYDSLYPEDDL
Briefly: Surface marker detection of washed FPH at different plasmin concentrations. The experiment is classed as cell-based. Particulars: 0, 1.46, 2.92, 14.6, 29.2 nkat/ml plasmin, 1 hour.

The test system of experiment [5] is aggregation of washed FPH with washed platelets. Briefly: Mixed aggregation of washed FPH with washed platelets with and without plasmin. It counts as cell-based, human. Particulars: plasmin-treated washed FPH mixed with WPS. How it is done:
This was repeated for optimal concentration of plasmin added based on flow results. To initiate spontaneous aggregation between the washed platelets and washed FPH the following steps were performed for the mixed samples. Stir bars were added to cuvettes, 225 μl of sample was added to the cuvettes by reverse pipetting and inserted into channels. The cuvettes were transferred from the warming wells to the testing wells. The run was started for each channel with 10 seconds in between. 25 μl of HMTA was added to all cuvettes once the timer for the channel reached 8:00 minutes. After measurements were completed, each sample was transferred to a microcentrifuge tube and AcT counts were taken.

Where [6] appears, read: washed FPH and washed platelets.

Regarding “Arg-Gly-Asp-Ser (RGDS; printed: Arg-Gly-Asp-Ser) [GpIIbIIa receptor antagonist RGDS peptide]”, in the experiment with GpIIbIIa receptor, the “effect on mixed aggregation of washed FPH and washed platelets” value was “inhibited aggregation”; the “fold lower platelet counts in untreated mixed sample in comparison to the treated mixed sample” value is recorded as over 2 fold.

As to `CCCCS(=O)(=O)N[C@@H](Cc1ccc(OCCCCC2CCNCC2)cc1)C(=O)O` [tirofiban], the “effect on divalent cation induced aggregation of FPH” value in experiment [1] is given as “abrogated”.

On to `O=C(NC[C@H]1CN(c2ccc(N3CCOCC3=O)cc2)C(=O)O1)c1ccc(Cl)s1` [Rivaroxaban], for which, on FXa, the “thrombin generation of FPH” value is “decreasing thrombin generation”. The “maximum peak time of thrombin generation of FPH” value on FXa (1:64 dilution) is listed as “increasing maximum peak time”.

Take `O=C(O)CN(CCN(CC(=O)O)CC(=O)O)CC(=O)O` [EDTA]: the “effect on aggregation between washed FPH and washed platelets” value in the experiment on washed platelets (WPS) was “prevents aggregation”. In experiment [2] (washed FPH), the “Bound fibrinogen with addition of EDTA” value is listed as “decreases slightly”. In experiment [2] (setting [6]), the “CD61 (GpIIIa) signal with addition of EDTA” value is given as “decreased slightly” and the “drop in the GpIIbIIIa complex (CD41) with addition of EDTA” value is listed as “more than half”.

B1: plasmin: Plasmin causes the breakdown of fibrinogen (protein, UniProt P00747 20-580; P00747 581-810, looked up)
Plasmin heavy chain A: EPLDDYVNTQGASLFSVTKKQLGAGSIEECAAKCEEDEEFTCRAFQYHSKEQQCVIMAENRKSSIIIRMRDVVLFEKKVYLSECKTGNGKNYRGTMSKTKNGITCQKWSSTSPHRPRFSPATHPSEGLEENYCRNPDNDPQGPWCYTTDPEKRYDYCDILECEEECMHCSGENYDGKISKTMSGLECQAWDSQSPHAHGYIPSKFPNKNLKKNYCRNPDRELRPWCFTTDPNKRWELCDIPRCTTPPPSSGPTYQCLKGTGENYRGNVAVTVSGHTCQHWSAQTPHTHNRTPENFPCKNLDENYCRNPDGKRAPWCHTTNSQVRWEYCKIPSCDSSPVSTEQLAPTAPPELTPVVQDCYHGDGQSYRGTSSTTTTGKKCQSWSSMTPHRHQKTPENYPNAGLTMNYCRNPDADKGPWCFTTDPSVRWEYCNLKKCSGTEASVVAPPPVVLLPDVETPSEEDCMFGNGKGYRGKRATTVTGTPCQDWAAQEPHRHSIFTPETNPRAGLEKNYCRNPDGDVGGPWCYTTNPRKLYDYCDVPQCAAPSFDCGKPQVEPKKCPGR
Plasmin light chain B: VVGGCVAHPHSWPWQVSLRTRFGMHFCGGTLISPEWVLTAAHCLEKSPRPSSYKVILGAHQEVNLEPHVQEIEVSRLFLEPTRKDIALLKLSSPAVITDKVIPACLPSPNYVVADRTECFITGWGETQGTFGAGLLKEAQLPVIENKVCNRYEFLNGRVQSTELCAGHLAGGTDSCQGDSGGPLVCFEKDKYILQGVTSWGLGCARPNKPGVYVRVSRFVTWIEGVMRNN
modifications: Plasmin
notes: Plasmin causes the breakdown of fibrinogen
As to B1, the “FPH aggregation response to MgCl2 after plasmin treatment” value in experiment [3] is “no dose dependent response”. Besides, in experiment [4], the “effect on fibrinogen on the surface of FPH” value is listed as “degrades fibrinogen on the surface of FPH”. The “effect on aggregation of washed FPH with washed platelets” value in experiment [5] was “inhibits the aggregation”.
